# Results reported in patent publication US20240335569A1, “FIBROBLAST ACTIVATION PROTEIN INHIBITORS AND USE THEREOF” (3 B PHARMACEUTICALS GMBH, priority 2021, published 2024).
# How the values were obtained:
# Recombinant human DPP4 = Recombinant human DPP4 (Homo sapiens (Human), UniProt P27487); assay: DPP4 protease activity assay; type: biochemical
# Experimental: The PREP activity assay was performed using the FACS buffer (PBS including 1% FBS, Sigma-Aldrich, Cat #D8537). […] The DPP4 activity assay was performed in DPP assay buffer (25 mM Tris, pH 8.0). […] Four parameter logistic (4PL) curve fitting and pIC50 calculations were performed using ActivityBase software.
# HT-29 cells = assay: Stability in the presence of tumor cells (HT-29), FAP IC50 of supernatants; type: in vitro ADME, human; settings: for pIC50 (incubation in cell medium w/o HT-29) / pIC50 (incubation in the presence of HT-29 cells): 10 μM compound, supernatant tested on recombinant human FAP; for pIC50 (incubation in cell medium w/o HT-29): 24 hours at 37° C. in control wells without cells; for pIC50 (incubation in the presence of HT-29 cells): 24 hours at 37° C. with HT-29 cells
# Experimental: Cells were cultured in McCoys's 5A modified medium (Biochrom, #F1015) including 10% fetal bovine serum (FBS), 2 mM L-glutamine, 100 U/ml penicillin and 100 μg/mL streptomycin (growth medium). […] 1 mL of the cell suspension were seeded in 24-well plates and incubated overnight at 37° C. and 5% CO2. The next day, cells were washed twice and growth medium was exchanged against DMEM without phenol red (Biochrom, #F0475) including 2 mM L-glutamine. Test compound was diluted in DMEM without phenol red (Biochrom, #F0475) including 2 mM L-glutamine. 400 μL of a 10 μM solution of the test compound was incubated for 24 hours at 37° C. and 5% CO2 in the presence of cells as well as in control wells (without cells) of the same 24-well plate.
# 25 μL of a 30 μM substrate solution, diluted in assay buffer, was added. All solutions were equilibrated at 37° C. prior to use. […] RFU/sec was calculated by SoftMax Pro software and plotted against test compound concentration. Four parameter logistic (4PL) curve fitting and IC50/pIC50 calculations were performed using GraphPad Prism 9.1 software.
# The stability of exemplary compounds was further assessed in the presence of a variety of human cell lines from different tissue origins. […] Compounds were diluted in DMEM without phenol red (Biochrom, #F0475) including 2 mM L-glutamine. 400 μL of a 10 μM solution of the test compound was incubated for 24 hours at 37° C. and 5% CO2 in the presence of cells as well as in control wells (without cells) of the same 24-well plate. IC50/pIC50 determination of the supernatants was performed as described above.
# Human recombinant FAP [1] = target: T1, Human recombinant FAP (Homo sapiens (Human), UniProt Q12884); assay: Surface plasmon resonance assay (Biacore T200, SCK); type: binding; settings: for pKD (Biacore) / Kd: SPR; for HL [min] (Biacore): SPR dissociation half-life; for Kd: read-out: pKD (Biacore) (converted)
# Experimental: Surface plasmon resonance studies were performed using a Biacore™ T200 SPR system (Cytiva, formerly GE Healthcare). Briefly, polarized light is directed towards a gold-labeled sensor surface, and minimum intensity reflected light is detected. The angle of reflected light changes as molecules bind and dissociate. […] Test compounds are contacted with the loaded surface, and a real-time interaction profile with the FAP ligand is recorded in a sensorgram. In real-time, the association and dissociation of a binding interaction is measured, enabling calculation of association and dissociation rate constants and the corresponding affinity constants. Importantly, a background response is generated due to the difference in the refractive indices of the running and sample buffers, as well as unspecific binding of the test compounds to the flow cell surface. This background is measured and subtracted by running the sample on a control flow cell coated with the same density of capture antibody in the absence of immobilized FAP. Furthermore, baseline drift correction of the binding data is performed, which is caused by slow dissociation of the captured FAP from the immobilized antibody. This drift is measured by injecting running buffer through a flow cell with the antibody and FAP immobilized to the sensor surface.
# Biacore™ CM5 sensor chips were used. […] A 150 μL aliquot was transferred into plastic vials and placed into the sample rack of the Biacore™ T200 instrument. Amine Coupling Kit Reagent solutions were transferred into plastic vials and placed into the sample rack: 90 μL of 0.4 M 1-ethyl-3-(3-dimethylaminopropyl) carbodiimide (EDC), and 90 μL of 0.1 M N-hydroxysuccinimide (NHS). A 130 μL aliquot of 1 M ethanolamine-HCl, pH 8.5, was transferred into plastic vials and placed into the sample rack. The Biacore™ liquid system was set-up as follows: Separate bottles containing distilled water (1 L), Running Buffer (500 mL), as well as an empty bottle for waste were placed onto the buffer tray. A preinstalled program for immobilization was used, with an immobilization level of 7000 RU. Immobilization was performed at 25° C. The immobilization procedure of anti-FAP antibodies was performed, as described in the Table 4.
# Human recombinant FAP was diluted in Running Buffer to a final concentration of 20 μg/mL. A 100 μL aliquot of human FAP-Working-Solution was transferred into plastic vials and placed into a sample rack. A 0.5 mM Compound-Stock-Solution was prepared by dissolving each compound in DMSO. For each test compound, Compound-Stock-Solutions were diluted in Running Buffer (HBST) at 500 nM and further diluted with HBST-DMSO Buffer (0.1% DMSO). SPR binding analyses for binary complexes were performed in SCK mode at 25° C. Following three SCK measurements, a baseline drift was assessed by injecting running buffer through a flow cell, with the antibody and FAP immobilized to the sensor surface.
# For each test compound, SPR raw data in the form of resonance units (RU) were plotted as sensorgrams using the Biacore™ T200 control software. The signal from the blank sensorgram was subtracted from that of the test compound sensorgram (blank corrected). The blank corrected sensorgram was corrected for baseline drift by subtracting the sensorgram of a SCK run without the test compound (running buffer only). The association rate (kon), dissociation rate (koff), dissociation constant (KD), and t1/2 were calculated from Blank-normalized SPR data using the 1:1 Langmuir binding model from the Biacore™ T200 evaluation software. Raw data and fit results were imported as text files in IDBS. The pKD value (negative decadic logarithm of dissociation constant) was calculated in the IDBS excel template.
# Target sequence in this assay (Q12884 whole entry): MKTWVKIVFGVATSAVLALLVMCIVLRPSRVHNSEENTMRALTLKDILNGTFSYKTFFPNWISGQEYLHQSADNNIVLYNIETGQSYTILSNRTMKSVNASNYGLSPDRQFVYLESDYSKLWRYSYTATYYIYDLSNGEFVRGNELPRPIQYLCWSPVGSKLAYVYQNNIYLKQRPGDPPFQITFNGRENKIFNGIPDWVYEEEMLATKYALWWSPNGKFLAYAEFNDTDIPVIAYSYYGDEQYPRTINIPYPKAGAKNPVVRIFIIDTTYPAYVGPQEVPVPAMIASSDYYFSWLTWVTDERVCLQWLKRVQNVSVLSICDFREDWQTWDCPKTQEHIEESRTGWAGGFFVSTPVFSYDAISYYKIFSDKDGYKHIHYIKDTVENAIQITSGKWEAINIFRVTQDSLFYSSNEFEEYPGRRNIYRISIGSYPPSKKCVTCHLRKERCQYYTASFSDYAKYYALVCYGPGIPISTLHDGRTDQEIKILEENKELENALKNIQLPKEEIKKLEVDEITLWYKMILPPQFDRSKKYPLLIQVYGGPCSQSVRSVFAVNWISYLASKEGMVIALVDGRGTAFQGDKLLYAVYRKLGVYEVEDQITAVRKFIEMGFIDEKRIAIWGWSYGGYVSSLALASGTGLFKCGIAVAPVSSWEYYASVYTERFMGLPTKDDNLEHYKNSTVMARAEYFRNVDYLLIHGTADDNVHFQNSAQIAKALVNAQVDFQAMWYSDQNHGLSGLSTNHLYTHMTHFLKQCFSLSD
# [2] = target: FAP-expressing human WI-38 fibroblasts (Homo sapiens (Human), UniProt Q12884); assay: FACS binding assay (competitive, Cy5-labeled 3BP-2935)
# Experimental: In order to determine binding of compounds according to the present invention to FAP-expressing cells, a competitive FACS binding assay was established. […] Cells were diluted in FACS buffer to a final concentration of 100.000 cells per ml and 200 μl of the cell suspension are transferred to a u-shaped non-binding 96-well plate (Greiner). […] Cell were washed twice with FACS buffer (see above) and resuspended in 200 μl FACS buffer. Cells were analyzed in an Attune NxT flow cytometer (Thermo Fisher Scientific). Median fluorescence intensities (Cy5 channel) were calculated by Attune NxT software and plotted against test compound concentrations. Four parameter logistic (4PL) curve fitting and pIC50 calculations were performed using ActivityBase software.
# Human recombinant FAP [3] = target: T1, Human recombinant FAP; assay: FAP protease activity assay (human), FRET-based; type: biochemical; settings: for IC50: read-out: pIC50 (Activity) (converted)
# Experimental: (§1) In order to determine the inhibitory activity a FRET-based FAP protease activity assay was established.
# Four parameter logistic (4PL) curve fitting and pIC50 calculations were performed using ActivityBase software (IDBS).
# Target sequence in this assay (Q12884 26-760): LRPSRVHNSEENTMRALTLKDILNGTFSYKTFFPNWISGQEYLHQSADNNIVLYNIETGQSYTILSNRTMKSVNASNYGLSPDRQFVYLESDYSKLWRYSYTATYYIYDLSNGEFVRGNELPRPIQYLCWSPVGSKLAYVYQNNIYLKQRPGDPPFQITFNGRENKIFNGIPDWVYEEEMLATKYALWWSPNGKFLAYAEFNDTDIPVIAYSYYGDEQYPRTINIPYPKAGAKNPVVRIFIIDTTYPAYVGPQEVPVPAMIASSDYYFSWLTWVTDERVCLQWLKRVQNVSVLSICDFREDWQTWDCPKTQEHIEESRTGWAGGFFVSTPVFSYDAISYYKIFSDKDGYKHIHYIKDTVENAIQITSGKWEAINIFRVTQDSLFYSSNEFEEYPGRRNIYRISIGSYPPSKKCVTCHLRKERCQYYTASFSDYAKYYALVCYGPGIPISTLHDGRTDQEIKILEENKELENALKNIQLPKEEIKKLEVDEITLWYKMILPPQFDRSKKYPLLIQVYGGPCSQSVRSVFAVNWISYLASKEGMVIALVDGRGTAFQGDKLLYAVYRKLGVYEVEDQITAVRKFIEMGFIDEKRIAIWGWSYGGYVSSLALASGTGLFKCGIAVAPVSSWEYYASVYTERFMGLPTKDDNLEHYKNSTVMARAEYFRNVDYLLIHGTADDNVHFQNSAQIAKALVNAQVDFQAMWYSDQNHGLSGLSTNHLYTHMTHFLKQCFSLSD
# Recombinant mouse FAP = Recombinant mouse FAP (Mus musculus (Mouse), UniProt P97321); assay: FAP protease activity assay (mouse), FRET-based; type: biochemical
# Experimental: as §1
# Four parameter logistic (4PL) curve fitting and pIC50 calculations were performed using ActivityBase software.
# [4] = human FAP protease activity, FRET
# [5] = FAP-expressing WI-38 fibroblasts
# [6] = recombinant human FAP, FRET protease activity
# [7] = recombinant mouse FAP protease activity
# Chain of Recombinant mouse FAP (P97321 whole entry): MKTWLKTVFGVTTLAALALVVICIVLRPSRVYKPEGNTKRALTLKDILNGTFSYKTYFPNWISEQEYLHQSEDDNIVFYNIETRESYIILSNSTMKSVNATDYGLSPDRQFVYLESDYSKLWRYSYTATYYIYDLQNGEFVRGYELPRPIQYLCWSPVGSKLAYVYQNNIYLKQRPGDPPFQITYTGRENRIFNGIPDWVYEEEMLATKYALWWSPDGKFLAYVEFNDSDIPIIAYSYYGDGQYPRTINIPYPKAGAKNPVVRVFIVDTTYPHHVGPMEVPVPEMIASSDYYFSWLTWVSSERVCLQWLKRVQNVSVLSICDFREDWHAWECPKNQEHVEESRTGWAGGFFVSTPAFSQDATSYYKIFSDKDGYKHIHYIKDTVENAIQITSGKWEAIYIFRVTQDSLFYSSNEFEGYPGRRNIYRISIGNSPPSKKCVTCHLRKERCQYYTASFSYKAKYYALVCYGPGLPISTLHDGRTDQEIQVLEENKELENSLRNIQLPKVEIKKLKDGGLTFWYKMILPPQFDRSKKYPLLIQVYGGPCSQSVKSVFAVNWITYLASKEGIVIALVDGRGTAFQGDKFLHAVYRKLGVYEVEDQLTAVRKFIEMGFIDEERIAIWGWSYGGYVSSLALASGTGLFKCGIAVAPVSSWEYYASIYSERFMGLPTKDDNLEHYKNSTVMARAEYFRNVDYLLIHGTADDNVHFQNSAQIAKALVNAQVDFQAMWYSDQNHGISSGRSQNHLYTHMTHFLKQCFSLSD
# Chain of FAP-expressing human WI-38 fibroblasts (Q12884 whole entry): as the sequence (Q12884 whole entry) above
# Chain of Recombinant human DPP4 (P27487 whole entry): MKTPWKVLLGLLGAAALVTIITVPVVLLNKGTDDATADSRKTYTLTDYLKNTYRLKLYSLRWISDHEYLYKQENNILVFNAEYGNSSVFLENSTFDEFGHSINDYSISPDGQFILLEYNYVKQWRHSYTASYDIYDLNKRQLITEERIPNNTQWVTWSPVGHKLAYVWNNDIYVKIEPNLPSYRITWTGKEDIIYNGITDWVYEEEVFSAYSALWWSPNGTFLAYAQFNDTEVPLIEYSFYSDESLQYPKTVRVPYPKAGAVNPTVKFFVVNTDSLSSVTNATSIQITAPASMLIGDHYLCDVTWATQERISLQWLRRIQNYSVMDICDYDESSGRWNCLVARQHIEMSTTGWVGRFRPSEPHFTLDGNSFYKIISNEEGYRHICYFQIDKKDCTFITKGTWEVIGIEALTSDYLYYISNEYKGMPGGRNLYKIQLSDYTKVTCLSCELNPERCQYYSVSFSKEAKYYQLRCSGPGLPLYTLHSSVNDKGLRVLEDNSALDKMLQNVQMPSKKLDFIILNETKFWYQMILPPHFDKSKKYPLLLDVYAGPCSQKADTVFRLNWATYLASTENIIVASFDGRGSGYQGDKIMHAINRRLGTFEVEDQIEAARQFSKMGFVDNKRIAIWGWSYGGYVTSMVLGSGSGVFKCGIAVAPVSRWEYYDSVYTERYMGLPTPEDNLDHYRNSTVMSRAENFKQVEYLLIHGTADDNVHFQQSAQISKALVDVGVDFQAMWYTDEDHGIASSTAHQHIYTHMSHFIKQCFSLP
smiles,measurement,setting,value
N#C[C@@H]1CCCN1C(=O)CNC(=O)c1ccnc2ccccc12 [Compound 3BP-2762],pIC50 (DPP4),Recombinant human DPP4,<6
same,pIC50 (incubation in cell medium w/o HT-29),HT-29 cells,8.4
same,Residual activity after incubation with HT-29 cells for 24 hours (%),HT-29 cells,63%
N#C[C@@H]1CC(F)(F)CN1C(=O)CNC(=O)c1ccnc2ccc(-c3ccc(C(=O)NCCN4CCN(C(=O)CN5CCN(CC(=O)O)CCN(CC(=O)O)CCN(CC(=O)O)CC5)CC4)cc3)cc12 [Compound 3BP-3631],pKD (Biacore),Human recombinant FAP [1],>10.5
same,HL [min] (Biacore),Human recombinant FAP [1],>150 min
"O=C(NCC(=O)N1CCC[C@H]1C(=O)CO)c1ccnc2ccccc12 [Compound 3BP-4197, (S)—N-(2-(2-(2-hydroxyacetyl)pyrrolidin-1-yl)-2-oxoethyl)quinoline-4-carboxamide]",IC50,[2]; WI-38 fibroblasts,10 nM
same,IC50,Human recombinant FAP [3]; [4],3.16 nM
same,HL [min] (Biacore),Human recombinant FAP [1],3.1 min
same,Kd,Human recombinant FAP [1],1 nM
O=C(O)CN1CCN(CC(=O)O)CCN(CC(=O)N2CCN(CCCOc3ccc4nccc(C(=O)NCC(=O)N5CC(F)(F)C[C@H]5C(=O)c5nc6ccccc6o5)c4c3)CC2)CCN(CC(=O)O)CC1 [Compound 3BP-3412],HL [min] (Biacore),Human recombinant FAP [1],57 min
same,pIC50 (incubation in the presence of HT-29 cells),HT-29 cells,8.6
same,Residual activity after incubation with HT-29 cells for 24 hours (%),HT-29 cells,>95%
"CS(=O)(=O)c1ccc(-c2ccc3nccc(C(=O)NCC(=O)N4CC(F)(F)C[C@H]4C#N)c3c2)c(CO)c1 [Compound 3BP-4084, (S)—N-(2-(2-cyano-4,4-difluoropyrrolidin-1-yl)-2-oxoethyl)-6-(2-(hydroxymethyl)-4-(methylsulfonyl)phenyl)quinoline-4-carboxamide]",HL [min] (Biacore),Human recombinant FAP [1],>150 min
CC(C)(C)OC(=O)N1CCN(CCCOc2ccc3c(c2)c(C(=O)NCC(=O)N2CC(F)(F)C[C@H]2C#N)cc[n+]3[O-])CC1 [Compound 3BP-3579],pIC50 (FACS),[2]; [5],8
same,pIC50 (Activity),Human recombinant FAP [3]; [6],8.6
CC(C)(C)OC(=O)N1CC[N+]([O-])(CCCOc2ccc3nccc(C(=O)NCC(=O)N4CC(F)(F)C[C@H]4C#N)c3c2)CC1 [Compound 3BP-3577],pIC50 (FACS),[2]; [5],8.6
same,pIC50 (Activity),Human recombinant FAP [3]; [6],9
Cc1cc2nccc(C(=O)NCC(=O)N3CC(F)(F)C[C@H]3C#N)c2cc1-c1ccc(S(C)(=O)=O)cc1 [Compound 3BP-4026],pIC50 (FACS),[2]; WI-38 fibroblasts,8.9
same,pIC50 (Activity),Human recombinant FAP [3]; [4],9.3
same,pIC50 (mouseFAP),Recombinant mouse FAP; [7],8.8
CC(C)(C)OC(=O)N1CCN(CCCOc2ccc3nccc(C(=O)NCC(=O)N4CC(F)(F)C[C@H]4C#N)c3c2)CC1 [Compound 3BP-3580],pIC50 (FACS),[2]; [5],8.4
same,pIC50 (Activity),Human recombinant FAP [3]; [6],8.8
N#C[C@@H]1CC(F)(F)CN1C(=O)CNC(=O)c1ccnc2ccc(-c3ccc(S(=O)(=O)CCCNC(=O)CN4CCN(CC(=O)O)CCN(CC(=O)O)CCN(CC(=O)O)CC4)cc3)cc12 [Compound 3BP-3467],pKD (Biacore),Human recombinant FAP [1],>10.5
same,HL [min] (Biacore),Human recombinant FAP [1],>150 min
same,pIC50 (incubation in cell medium w/o HT-29),HT-29 cells,9.3
same,pIC50 (incubation in the presence of HT-29 cells),HT-29 cells,8.4
same,Residual activity after incubation with HT-29 cells for 24 hours (%),HT-29 cells,13%
N#C[C@@H]1CC(F)(F)CN1C(=O)CNC(=O)c1ccnc2ccccc12 [Compound 3BP-3232],pIC50 (incubation in the presence of HT-29 cells),HT-29 cells,8.0
same,Residual activity after incubation with HT-29 cells for 24 hours (%),HT-29 cells,13%
Cc1cc(S(C)(=O)=O)ccc1-c1ccc2nccc(C(=O)NCC(=O)N3CCC[C@H]3C#N)c2c1 [Compound 3BP-3953],pIC50 (FACS),[2]; WI-38 fibroblasts,7.9
same,pIC50 (Activity),Human recombinant FAP [3]; [4],9.2
same,pIC50 (mouseFAP),Recombinant mouse FAP; [7],8.9
same,pIC50 (DPP4),Recombinant human DPP4,<6
N#C[C@@H]1CC(F)(F)CN1C(=O)CNC(=O)c1ccnc2ccc(-c3ccc(C(=O)NCCCNC(=O)CN4CCN(CC(=O)O)CCN(CC(=O)O)CCN(CC(=O)O)CC4)cc3)cc12 [Compound 3BP-3621],pKD (Biacore),Human recombinant FAP [1],>10.5
same,HL [min] (Biacore),Human recombinant FAP [1],>150 min
CS(=O)(=O)c1ccc(-c2ccc3c(C(=O)NCC(=O)N4CC(F)(F)C[C@H]4C#N)ccnc3c2)cc1 [Compound 3BP-3236],HL [min] (Biacore),Human recombinant FAP [1],37 min
Cn1ncnc1C(=O)[C@@H]1CCCN1C(=O)CNC(=O)c1ccnc2ccccc12 [Compound 3BP-3207],pIC50 (FACS),[2]; [5],<6
same,pIC50 (Activity),Human recombinant FAP [3]; [6],6.5
COc1cccc2c(C(=O)NCC(=O)N3CC(F)(F)C[C@H]3C#N)ccnc12 [Compound 3BP-4085],pIC50 (FACS),[2]; WI-38 fibroblasts,7.7
same,pIC50 (Activity),Human recombinant FAP [3]; [4],8.2
CCOc1cccc2c(C(=O)NCC(=O)N3CC(F)(F)C[C@H]3C#N)ccnc12 [Compound 3BP-4151],pIC50 (FACS),[2]; WI-38 fibroblasts,7.7
same,pIC50 (Activity),Human recombinant FAP [3]; [4],8.5
Cc1cccc2c(C(=O)NCC(=O)N3CC(F)(F)C[C@H]3C#N)ccnc12 [Compound 3BP-4150],pIC50 (FACS),[2]; WI-38 fibroblasts,7.6
same,pIC50 (Activity),Human recombinant FAP [3]; [4],7.9
N#C[C@@H]1CC(F)(F)CN1C(=O)CNC(=O)c1ccnc2ccc(OCCCN3CCN(C(=O)CN4CCN5CCN6CCN(CC4)CC(=O)[O][Eu]([O]C(=O)C6)[O]C(=O)C5)CC3)cc12 [Compound 3BP-3663],pIC50 (FACS),[2]; [5],8.6
same,pIC50 (Activity),Human recombinant FAP [3]; [6],9.3
same,pIC50 (mouseFAP),"Recombinant mouse FAP; recombinant mouse FAP, FRET protease activity",9.1
O=C(O)CN1CCN(CC(=O)O)CCN(CC(=O)NCCCNC(=O)c2ccc(-c3ccc4nccc(C(=O)NCC(=O)N5CCC[C@H]5B(O)O)c4c3)cc2)CCN(CC(=O)O)CC1 [Compound 3BP-4201],pKD (Biacore),Human recombinant FAP [1],>10.5
same,HL [min] (Biacore),Human recombinant FAP [1],>150 min
N#C[C@@H]1CCCN1C(=O)CNC(=O)c1ccnc2ccc(-c3ccc(C(=O)NCCCNC(=O)CN4CCN(CC(=O)O)CCN(CC(=O)O)CCN(CC(=O)O)CC4)cc3)cc12 [Compound 3BP-3785],HL [min] (Biacore),Human recombinant FAP [1],>150 min
CC(C)(C)OC(=O)N1CC[N+]([O-])(CCCOc2ccc3c(c2)c(C(=O)NCC(=O)N2CC(F)(F)C[C@H]2C#N)cc[n+]3[O-])CC1 [Compound 3BP-3578],pIC50 (FACS),[2]; [5],8
same,pIC50 (Activity),Human recombinant FAP [3]; [6],8.6
O=C(NCC(=O)N1CCC[C@H]1B(O)O)c1ccnc2ccccc12 [Compound 3BP-4081],pIC50 (FACS),[2]; WI-38 fibroblasts,8.5
same,pIC50 (Activity),Human recombinant FAP [3]; [4],8.9
"N#C[C@@H]1CC(F)(F)CN1C(=O)CNC(=O)c1ccnc2ccc(-c3ccc(C(=O)NCCN4CCN(C(=O)CN5CCN(CC(=O)O)CCN(CC(=O)O)CCN(CC(=O)O)CC5)CC4)nc3)cc12 [Compound 3BP-4076, (S)-2,2′,2″-(10-(2-(4-(2-(5-(4-(2-(2-cyano-4,4-difluoropyrrolidin-1-yl)-2-oxoethylcarbamoyl)quinolin-6-yl)picolinamido)ethyl)piperazin-1-yl)-2-oxoethyl)-1,4,7,10-tetraazacyclododecane-1,4,7-triyl)triacetic Acid]",IC50,[2]; WI-38 fibroblasts,1.26 nM
same,IC50,Human recombinant FAP [3]; [4],0.631 nM
same,HL [min] (Biacore),Human recombinant FAP [1],>150 min
same,Kd,Human recombinant FAP [1],< 0.0316 nM
